Measurements: patent publication US9927437B2, “Treating neurodegenerative disease” (THE BRIGHAM AND WOMEN'S HOSPITAL, INC., priority 2013, dated 2018)

Legend:
[1] = test system: astrocytes; test: mRNA expression in astrocytes isolated from EAE NOD mice (nCounter, qPCR); type: in vivo, mouse; details: NOD EAE; i.c.v. lentivirus at day 35, qPCR
Experimental: Mononuclear cells were isolated from the CNS as previously described^50 with minor modifications. Naïve and EAE mice were euthanatized, and then subjected to perfusion through the left ventricle with ice-cold sterile PBS. Brains and spinal cord were then removed, minced and enzymatically dissociated with 0.05% (w/v) collagenase type III (Worthington Biochemical), 0.5% Dispase II (Roche Applied Science), 40 μg/ml DNAse I, 20 mM HEPES in HBSS) for 30 min at 37 C to make a suspension of single cells. Enzymes were inactivated with 20 ml of Ca^2+/Mg^2+-free HBSS containing 2 mM EDTA and 20 mM HEPES. The digested tissue was triturated and passed through a […] cell strainer. Cells were centrifuged and resuspended in 30% isotonic Percoll (GE Healthcare) and 40 μg/ml DNAse I, underlined by 70% isotonic Percoll, and centrifuged at 1000×g at 4° C. for 25 min. Cells were collected from the 70%-30% interphase, and sorted by FACS Aria.
These purification procedures are based on previously described dissociation and purification protocols^50,51. Isolated CNS cells, were incubated with anti-Mouse CD16/CD32 for 15 min on ice to block the Fc receptors, and stained with fluorochrome-conjugated antibody for CD11b (M1/70), CD45(90), CD3 (145-2C11), CD4 (GK1.5), and Ly6C (HK1.4), and Biotion-conjugated GSL I—isolectin B4 (Vector labs), CD105 (N418), CD140a (APA5), CD11c (N418), F4/80 (BM8), O4 (O4, Miltenyi Biotec), and CD19 (eBio1D3), and un-conjugated antibodies recognizing mouse MOG (8-18C5, Millipore), O1 (O1), and Galactocerebroside (mGlaC, Millipore). All antibodies were from Ebioscience, unless otherwise mentioned (clone number, when relevant, in parentheses). Cells were washed and incubated PE-conjugated Streptavidin and R-Phycoerythrin AffiniPure F(ab′)2 fragment of Goat Anti-Mouse IgG+IgM (H+L) (Jackson ImmunoResearch laboratories) for 20 min at 4 C in the dark. Cells were washed, incubated with 7-AAD or Fixable Viability Dye eFluor® 450 (if cells were to be used for intracellular staining), for exclusion of dead cells (FIG. S3A), and sorted as following. Microglia were sorted as CD11b^+ cells with low CD45 expression and low Ly6C (CD11b+/CD45^low/Ly6C^low), while the inflammatory monocytes were considered as CD11b^+/Ly6C^high 52. T-cells were sorted as CD3^+CD4^+ cells. Astrocytes were isolated following the depletion of lymphocytes, microglia, monocytes (FIG. S3B), and oligodendrocytes, and lymphocytes (T-cells, B-cells, and NK cells) (FIG. S3C). […] We confirmed that we had isolated a relatively pure populations of astrocytes by qPCR for the astrocyte markers^44,51 gfap, aldh1l1 and aqp4, and found them to be exclusively expressed in the astrocyte fraction (in a similar expression pattern to that of GFP^+ astrocytes sorted from Tg(GFP-hGFAP) FVB transgenic mice^49) (FIG. S3E). We used an additional cohort of markers to explore for presence of immune cells [microglia/monocytes cells—itgam (CD11b), and emr1 (F4/80), dendritic cells—itgax (CD11c), NK cells—Klrb1c (Nk1.1), T-cells—cd3, and B-cells—cd19], oligodendrocytes (mog, mbp), and neurons (syt1, snap25) (FIG. S3F, G).
100-200 ng of total RNA was hybridized with reporter and capture probes for nCounter Gene Expression code sets (Mouse Inflammation Kit, or a custom made astrocyte-oriented probe set (Table S1)), according to manufacturer's instructions (NanoString Technologies). Data were normalized to spiked positive controls and housekeeping genes (nSolver Analysis system). Transcript counts less than the mean of the negative control transcripts plus 2 standard deviations for each sample were considered background.
Nanostring generated gene expression data were analyzed by use of the Expander 6.06 platform^53. Genes were clustered using the unbiased CLICK algorithm, and each cluster was further analyzed for enrichments in transcription factors binding sites (promoter analysis).

[2] = test system: B4GALT5/6; test: Quantification of LacCer levels in the CNS (LC-MS/MS); type: in vivo, mouse; details: NOD EAE; i.c.v. 1×10^7 IU lentivirus at day 35, 10 days after injection
Experimental: Chemical standards of LacCer (d18:1/16:0) and LacCer (d18:1/18:0) were obtained from Avanti Polar Lipids. Quantification of LacCer (d18:1/16:0) and LacCer (d18:1/18:0) was achieved by LC-MS/MS analysis performed on an Agilent (Agilent Technologies, Santa Clara, Calif.) 6460 triple-quadrupole LC/MS/MS system. The fragments from the [M+H]^+ ions for LacCer and internal standard were subjected to collision induced dissociation and the two major types of fragment ions were monitored via electrospray ionization in the positive ion mode in multiple reaction monitoring (MRM) mode for each ion. These two MRM transitions corresponded to the loss of the neutral lactosyl moiety, and to the formation of the lactose ion. Specifically, the MRM transitions used for quantification for LacCer (d18:1/16:0) and LacCer(d18:1/18:0) were 862.5>[…] and 890.6>548.5, respectively. Secondary confirmatory MRM transitions for LacCer(d18:1/16:0) and LacCer(d18:1/18:0) of 862.5>264.3 and 890.6>264.3 were also monitored. Mass spectrometer parameter settings were gas temp (325° C.), gas flow (12 L/min), nebulizer (25 psi), sheath gas temp (400° C.), sheath gas flow (12 L/min), capillary voltage (4000v), and nozzle voltage (500v). Liquid chromatography conditions with an a Phenomenex Gemini C18 column 4.6×50 mm 5 μm particle size was used for separation. Chromatography method the following flow rate=0.4 mLs/min; solvent A=5 mM ammonium formate in 5% MeOH and 0.1% formic acid v/v/v; solvent B=80% 2-propanol, 15% methanol, 5% water and 0.1% formic acid (v/v/v/v). […] Standard curve mixture was analyzed at various concentrations between 0.10 nM to 3.3 μM in LacCer (d18:1/16:0) and an internal standard concentration of 1 μM. The lower limit of quantification was estimated at 1 nM and a R^2 of 0.9969 was obtained using linear regression analysis. […]
The brain tissue was weighed and homogenized using a Dounce homogenizer (VWR), in the extraction solvent using a Bligh and Dyer type liquid-liquid extraction. […] The dried sample was reconstituted in 100 μl of 2:1 chloroform-methanol, and analyzed using the HPLC-MS.

[3] = test system: EAE NOD mice; test: EAE in NOD mice, progressive phase (clinical score, histopathology, body weight); type: in vivo; details: NOD EAE; i.c.v. 1×10^7 IU lentivirus at day 35
[4] = test system: C8-D30 astrocytes; test: In vitro knock-down with shRNA in C8-D30 astrocytes, LPS/IFNγ activation; type: cell-based, mouse; details: lentivirus-delivered shRNA

For “shB4galt5: lentivirus-delivered shRNA against b4galt5 (TRCN0000018782; SEQ ID NO:2) (guide GCAGCCTGAATGACTCAGATTCTCGAGAATCTGAGTCATTCAGGCTGC)”, the “b4galt6 and b4galt5 expression in astrocytes” value [1] was “astrocyte-specific knock-down”, the “CNS LacCer levels” value [2] was “but not of b4galt5, led to a significant decrease of CNS LacCer levels” and the EAE disease progression [3] was “but not of b4galt5, suppressed disease progression”. For the same substance, the “up-regulation of h2-Aa, ccl5 and cxcl10 expression” value [4] was “did not affect the expression”.
